Experimental data: the NIST ThermoML archive (doi:10.1021/je060271a)

Conditions: 323.15 K, Liquid, Vibrating tube method

CCCCC(=O)OCC(COC(=O)CCCC)(COC(=O)CCCC)COC(=O)CCCC [pentaerythritol tetrapentanoate]
Conditions | mass density [kg/m3]
25366 kPa | 1011.6
25395 kPa | 1011.5
25431 kPa | 1011.6
25460 kPa | 1011.6
25495 kPa | 1011.6
25525 kPa | 1011.6
25555 kPa | 1011.6
25590 kPa | 1011.6
25620 kPa | 1011.7
25651 kPa | 1011.7
25684 kPa | 1011.7
25714 kPa | 1011.8
25750 kPa | 1011.8
25780 kPa | 1011.9
25817 kPa | 1011.9
25847 kPa | 1011.7
25878 kPa | 1011.8
25908 kPa | 1012
25945 kPa | 1011.9
25976 kPa | 1011.9
26007 kPa | 1011.9
26044 kPa | 1011.9
26076 kPa | 1011.8
26107 kPa | 1012
26145 kPa | 1012
26176 kPa | 1012
26208 kPa | 1012.1
26245 kPa | 1012.1
26277 kPa | 1012
26308 kPa | 1012.1
26346 kPa | 1012
26378 kPa | 1012.2
26410 kPa | 1012.2
26448 kPa | 1012.2
26480 kPa | 1012.3
26512 kPa | 1012.2
26551 kPa | 1012.2
26584 kPa | 1012.3
26617 kPa | 1012.3
26656 kPa | 1012.3
26689 kPa | 1012.2
26722 kPa | 1012.4
26754 kPa | 1012.4
26794 kPa | 1012.3
26826 kPa | 1012.3
26860 kPa | 1012.3
26900 kPa | 1012.5
26933 kPa | 1012.5
26967 kPa | 1012.4
27007 kPa | 1012.6
27041 kPa | 1012.5
27075 kPa | 1012.5
27109 kPa | 1012.6
27150 kPa | 1012.7
27183 kPa | 1012.7
27218 kPa | 1012.7
27258 kPa | 1012.7
27292 kPa | 1012.6
27327 kPa | 1012.6
27362 kPa | 1012.7
27404 kPa | 1012.7
27440 kPa | 1012.7
27475 kPa | 1012.8
27510 kPa | 1012.9
27552 kPa | 1012.9
27586 kPa | 1012.9
27628 kPa | 1012.9
27663 kPa | 1012.9
27698 kPa | 1012.9
27733 kPa | 1012.9
27776 kPa | 1013.1
27811 kPa | 1013.1
27847 kPa | 1013
27890 kPa | 1013.1
27926 kPa | 1013.1
27968 kPa | 1013.1
28005 kPa | 1013.1
28041 kPa | 1013.1
28077 kPa | 1013.2
28122 kPa | 1013.2
28158 kPa | 1013.1
28195 kPa | 1013.3
28238 kPa | 1013.2
28276 kPa | 1013.3
28313 kPa | 1013.4
28357 kPa | 1013.2
28396 kPa | 1013.3
28435 kPa | 1013.4
28472 kPa | 1013.4
28511 kPa | 1013.4
28557 kPa | 1013.5
28595 kPa | 1013.5
28633 kPa | 1013.5
28672 kPa | 1013.6
28719 kPa | 1013.5
28798 kPa | 1013.6
28964 kPa | 1013.6
28998 kPa | 1013.7
29025 kPa | 1013.8
29053 kPa | 1013.7
29087 kPa | 1013.7
29115 kPa | 1013.8
29143 kPa | 1013.8
29325 kPa | 1013.9
29354 kPa | 1014
29388 kPa | 1013.9
29418 kPa | 1014
29452 kPa | 1014
29480 kPa | 1013.9
29509 kPa | 1014.1
29544 kPa | 1014
29573 kPa | 1014
29602 kPa | 1014.1
29638 kPa | 1014.2
29667 kPa | 1014.1
29697 kPa | 1014.1
29733 kPa | 1014.2
29762 kPa | 1014.2
29792 kPa | 1014.2
29822 kPa | 1014.1
29857 kPa | 1014.2
29886 kPa | 1014.2
29917 kPa | 1014.3
29952 kPa | 1014.3
29982 kPa | 1014.4
30012 kPa | 1014.3
30049 kPa | 1014.4
30078 kPa | 1014.4
30109 kPa | 1014.5
30146 kPa | 1014.5
30177 kPa | 1014.4
30208 kPa | 1014.5
30238 kPa | 1014.4
30275 kPa | 1014.4
30306 kPa | 1014.5
30342 kPa | 1014.6
30373 kPa | 1014.5
30404 kPa | 1014.6
30435 kPa | 1014.6
30472 kPa | 1014.7
30504 kPa | 1014.6
30535 kPa | 1014.7
30573 kPa | 1014.7
30604 kPa | 1014.7
30641 kPa | 1014.6
30673 kPa | 1014.7
30705 kPa | 1014.8
30742 kPa | 1014.7
30774 kPa | 1014.9
30806 kPa | 1014.9
30838 kPa | 1014.8
30876 kPa | 1014.9
30908 kPa | 1014.9
30947 kPa | 1014.9
30979 kPa | 1014.9
31012 kPa | 1014.9
31051 kPa | 1014.9
31084 kPa | 1015
31116 kPa | 1015.1
31149 kPa | 1015
